Laboratory results taken from BindingDB's records for doi:10.1021/jm990599h (National Institute of Diabetes and Digestive and Kidney …, 2000).

These molecules were tested against Beta-2 adrenergic receptor (Rattus norvegicus) (UniProt P10608) (assay: Binding of [3H]dihydroalprenolol to beta-2 adrenergic receptor of rat cerebellar membranes).
Chain of Beta-2 adrenergic receptor (Rattus norvegicus) (P10608 whole entry, looked up): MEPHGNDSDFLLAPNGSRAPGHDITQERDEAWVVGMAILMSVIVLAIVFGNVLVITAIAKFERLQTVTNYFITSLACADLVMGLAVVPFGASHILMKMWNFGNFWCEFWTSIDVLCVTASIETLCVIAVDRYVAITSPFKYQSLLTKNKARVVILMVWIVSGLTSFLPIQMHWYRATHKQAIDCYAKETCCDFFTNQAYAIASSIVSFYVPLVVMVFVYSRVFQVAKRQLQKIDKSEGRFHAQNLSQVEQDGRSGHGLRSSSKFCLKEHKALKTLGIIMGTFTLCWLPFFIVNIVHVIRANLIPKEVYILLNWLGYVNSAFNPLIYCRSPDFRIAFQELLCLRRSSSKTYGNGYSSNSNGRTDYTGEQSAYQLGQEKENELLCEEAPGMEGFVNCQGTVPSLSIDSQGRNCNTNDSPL
NCCc1ccc(O)c(O)c1 gave a Ki of 50 µM.
For CNCC(O)c1cc(O)c(O)cc1F (stereo not drawn) [(+/-)4-Fluoro-5-(1-hydroxy-2-methylamino-ethyl)-benzene-1,2-diol], the Ki was 50 µM.
For CNC[C@H](O)c1cc(O)c(O)cc1F [(R)4-Fluoro-5-(1-hydroxy-2-methylamino-ethyl)-benzene-1,2-diol], the Ki was 38 µM.
